Tests used:
[1] = system: IL-4 induced germline ε transcription; test: A5T4 reporter line screening of single cell clones (+Dox vs -Dox, IL-4 stimulated, GFP by FACS); format: cell-based, human; conditions: geometric mean GFP fluorescence +IL-4/+Dox to +IL-4/-Dox; IL-4 60 U/mL, Dox 10 ng/ml; library clone
Text: Peptide BR10A1 wt was identified by screening a retroviral library of random peptide 20-mers for the ability to inhibit IL-4 induced germline ε transcription using the HBEGF2a/diphtheria dual reporter phenotypic screening system described in WO 01/31232. To construct the random library, A5T4 reporter cells (described in more detail below) were infected with an infectious retroviral library of random peptide 20-mers (prepared as described in WO 97/27213; see also WO 01/34806 at page 39, line 36 through page 40, line 19). The retroviral vector used includes a gene encoding blue fluorescent protein (BFP) fused upstream of the region encoding the random peptide via a linker region encoding an α-helical peptide linker (expression fusion product is referred to as “BFP-peptide”). Expression of the BFP-peptide product is controlled by a promoter sensitive to the tetracycline-regulated transactivator such that expression of the BFP-peptide is regulated by tetracycline (Tet) or doxycycline (Dox). See U.S. patent application Ser. No. 10/096,339, entitled “Methods and Compositions for Screening for Altered Cellular Phenotypes,” filed on Mar. 8, 2002. […]

[2] = system: endogenous germline α promoter; test: TAQMAN assay of endogenous germline α promoter transcription in ST486 cells; format: cell-based; conditions: ST486 cells stimulated with TGF-β 40 ng/ml; average of 3 values
Description: The assay was similar to that described in the immediately preceding section, except that ST486 cells (ATCC # CRL-1647) engineered to express the tetracycline-regulated transactivator were infected and the infected cells were stimulated with TGF-β (40 ng/ml; Peprotech). The primers and probe, which are specific for the transcription product driven by the ST486 endogenous α promoter, were as follows (the probe was labeled at the 5′-end with Fam and at the 3′-end with Tamra): […]

human c-Myc protein = biological target: T1, human c-Myc protein (Homo sapiens, UniProt P01106); test: Yeast two hybrid (YTH) interaction assay, β-galactosidase; format: binding
T1 construct: expressed in transfected cells; prey cDNA library made from the A5T4 reporter line (human BJAB B-cells)
T1 sequence (P01106 whole entry): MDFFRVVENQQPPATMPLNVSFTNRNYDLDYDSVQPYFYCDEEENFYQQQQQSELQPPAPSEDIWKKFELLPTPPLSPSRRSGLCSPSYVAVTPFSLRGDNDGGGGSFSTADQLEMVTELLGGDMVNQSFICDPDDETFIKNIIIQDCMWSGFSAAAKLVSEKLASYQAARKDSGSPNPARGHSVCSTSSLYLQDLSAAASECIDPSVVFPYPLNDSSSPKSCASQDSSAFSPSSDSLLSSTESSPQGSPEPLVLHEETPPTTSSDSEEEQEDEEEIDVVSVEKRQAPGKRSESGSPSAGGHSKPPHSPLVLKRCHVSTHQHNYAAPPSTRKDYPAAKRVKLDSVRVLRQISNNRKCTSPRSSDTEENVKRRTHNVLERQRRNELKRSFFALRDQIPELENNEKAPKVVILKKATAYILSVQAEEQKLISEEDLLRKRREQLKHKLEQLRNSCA
Description: Potential binding partners for peptide BR10A1 wt were identified in a β-galactosidase yeast two-hybrid (YTH) assay using peptide BR10A1 wt as bait and a cDNA library constructed from the A5T4 reporter cell line as prey. Binding was assessed by β-galactosidase quantification using BetaFluor (Novagen) as a substrate. A negative interaction control (no cDNA fused downstream of the GAL4 activation domain sequence) was also run. A general outline of the YTH assay is illustrated in FIG. 5A. Following clustering, filtering to remove non-specific bait hits (e.g., GFP and BFP), singletons and clusters recognized by 10 or more cDNA baits (based upon historical YTH assays), and prioritization, 30 prey clones were identified as hits.
Potential targets identified in the YTH assay were reconfirmed as generally outlined in FIG. 6. The cDNA clones identified as hits in the YTH assay were purified and rescreened for interaction with the BR10A1 wt peptide in a YTH assay. The hit clones were also screened in a control assay for interaction with the BFP using a vector (pGBKT7) that contained only the BFP and not the BR10A1 peptide. At this stage, 25 putative target clones remained.
The interaction of BR10A1 wt peptide and its mutants with the clones identified as potential targets for the peptide BR10A1 wt was then quantified in a β-galactosidase YTH assay. The YTH assay was performed in the manner described above. A general outline of this YTH assay is illustrated in FIG. 5B. For each clone tested, an interaction profile was developed by comparing the β-galactosidase activity of each mutant to that of the wild type peptide as described above.
The interaction of selected IOF, ROF and LOF mutants with different polypeptides encoded by the putative target clones were quantified using the YTH assay described above. Based on the YTH assay, for each putative target, the mutants were categorized into the following four interaction categories: (1) reduction of interaction (ROI); (2) loss of interaction (LOI); (3) increase of interaction (IOI); and (4) interactionally neutral (N), by assessing the binding affinity ratio of the mutant peptide and the wild type peptide (β-gal activity of mutant/wild type) to the putative target. The selection criteria for categorizing the interactions is shown on FIG. 8.

## MQRRESCITRSVEEGWGLFYLGP (peptide encoded by random oligo-BR10A1wt) [wild-type peptide from random library, expressed in cells as BFP-peptide fusion]
[1]
  Reporter Ratio: 1.26
[2]
  endogenous α inhibition ratio: 0.87
Human c-Myc protein
  binding to human c-Myc protein in yeast two hybrid interaction assay: found to bind

— patent publication US7241581B2, “Methods of identifying compounds that modulate IL-4 receptor-mediated IgE synthesis utilizing a c-MYC protein” (Rigel Pharmaceuticals, Inc., priority 2002, dated 2007)
